# Laboratory results taken from patent US20250188079A1, “INHIBITING CYCLIC AMP-RESPONSIVE ELEMENT-BINDING PROTEIN (CREB)” (Forma Therapeutics, Inc., priority 2019, published 2025).
# Target: CBP (Homo sapiens (Human), UniProt Q92793)
# Assay: HTRF biochemical assay for CBP activity (TR-FRET, bromodomain)
# Format: binding
# Conditions: geometric mean, 10-point 3-fold dilution 33 μM to 1.7 nM, read-out: BROMO IC50 TRF TB CBP (μM gmean)
# Procedure: Example 1: HTRF Biochemical Assay for CBP Activity
# The assay was performed in a final volume of 6 μL in assay buffer containing 50 mM Hepes (pH 7.5, (0.5M Hepes, pH 7.5 solution; Teknova H1575)), 0.5 mM GSH, 0.01% BGG (0.22 p M filtered, Sigma, G7516-25G), 0.005% BSA (0.22 μM filtered, EMD Millipore Corporation, 126575) and 0.01% Triton X-100 (Sigma, T9284-10L). Nanoliter quantities of 10-point, 3-fold serial dilution in DMSO were pre-dispensed into 1536 assay plates (Corning, #3724BC) for a final test concentration of 33 μM to 1.7 nM, top to lowest dose, respectively. 3 μL of 2×Protein and 3 μL of 2×Peptide Ligand were added to assay plates (pre-stamped with compound). Plates were incubated for varying times at room temperature prior to measuring the signal. TR-FRET (Time-Resolved Fluorescence Resonance Energy Transfer) was measured on the PHERAstar (BMG, equipped with HTRF optic module [337/520/490]) or on the Envision (PerkinElmer, equipped with the TRF Laser unit, TRF dual mirror D400/D505 and emission filters M520 and M495). Data were reported as percent inhibition compared with control wells based on the following equation: % inh=1−((TR-FRET ratio−AveLow)/(AveHigh−AveLow)) where TR-FRET ratio=(Fluorescence at 520 nm/Fluorescence at 490 nm)*10000), AveLow=average TR-FRET ratio of no enzyme control (n=32), and AveHigh=average TR-FRET ratio of DMSO control (n=32). IC50 values were determined by curve fitting of the standard 4 parameter logistic fitting algorithm included in the Activity Base software package: IDBS XE Designer Model205. Data is fitted using the Levenburg Marquardt algorithm. As set forth in Table 2 below, an IC50 value of greater than or equal to 0.001 μM and less than or equal to 0.01 μM is marked “++++”; a value greater than 0.01 μM and less than or equal to 0.1 μM is marked “+++”; a value greater than 0.1 μM and less than or equal to 1 μM is marked “++”; and a value greater than 1 μM and less than 1000 μM is marked “+.” Compounds that were not tested in a particular assay are marked “NT.”
# Chain of CBP (Q92793 1085-1192): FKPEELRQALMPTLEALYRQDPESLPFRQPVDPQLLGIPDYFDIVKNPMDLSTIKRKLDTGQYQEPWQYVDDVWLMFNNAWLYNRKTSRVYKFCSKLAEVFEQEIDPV
row,Compound,IC50
1,"COC(=O)N1CCc2ccc3c(nc([C@@H]4CCC[C@@H](C(=O)O)C4)n3C(C)Cc3ccccc3)c2C1 (stereo in doubt) [Compound 99, (1R,3R)-3-[8-(methoxycarbonyl)-3-[(2S)-1-phenylpropan-2-yl]-3H,6H,7H,8H,9H-imidazo[4,5-h]isoquinolin-2-yl]cyclohexane-1-carboxylic acid]",0.001 to 0.01 µM
2,COC(=O)N1CCc2ccc3c(nc(C4CCCCC4)n3C[C@@H](CC(=O)O)c3ccccc3)c2C1 [Compound 8],0.001 to 0.01 µM
3,COC(=O)N1CCc2ccc3c(nc(N4CCNCC4)n3[C@H](C)Cc3ccccc3)c2C1 [Compound 347],1 to 1000 µM
4,COC(=O)N1CCc2ccc3c(nc(-c4ccc(CC(=O)O)cc4)n3[C@@H](C)Cn3cc(Cl)cn3)c2C1 [Compound 122],0.001 to 0.01 µM
5,COC(=O)N1CCc2ccc3c(nc([C@H]4CC[C@H](C(=O)O)CC4)n3[C@H](C)C[C@H]3CC[C@H](OC(F)(F)F)CC3)c2C1 [Compound 317],0.1 to 1 µM
6,COC(=O)N1CCc2ccc3c(nc(N4CCC(C(=O)O)CC4)n3[C@H](C)Cn3cc(C(F)(F)F)cn3)c2C1 [Compound 285],0.01 to 0.1 µM
7,COC(=O)N1CCc2ccc3c(nc(C4CCCCC4)n3CC[C@@H]3CCC[C@@H](C(=O)O)C3)c2C1 [Compound 168],0.001 to 0.01 µM
8,COC(=O)N1CCc2ccc3c(nc(N4CCC[C@@H](C(=O)O)C4)n3[C@@H](C)Cc3ccccc3)c2C1 [Compound 82],0.001 to 0.01 µM
9,COC(=O)N1CCc2ccc3c(nc(C4CCCCC4)n3CC[C@H]3CC[C@@H](C(=O)O)CC3)c2C1 [Compound 87],0.001 to 0.01 µM
10,COC(=O)N1CCc2ccc3c(nc([C@H]4CC[C@H](C(=O)O)CC4)n3[C@H](C)C[C@H]3CC[C@H](OC)CC3)c2C1 [Compound 287],0.01 to 0.1 µM
11,COC(=O)N1CCc2ccc3c(nc(-c4ccc(C(=O)O)cc4)n3[C@@H](C)Cn3cc(Cl)cn3)c2C1 [Compound 132],0.001 to 0.01 µM
12,COC(=O)N1CCc2ccc3c(nc(C4CCCCC4)n3[C@H](C)C[C@H]3CCCC[C@H]3C(=O)O)c2C1 [Compound 239],0.01 to 0.1 µM
13,"COC(=O)N1CCc2ccc3c(nc([C@@H]4CCC[C@@H](C(=O)O)C4)n3[C@@H](C)Cc3ccccc3C)c2C1 (single isomer, unassigned) [Compound 17]",0.001 to 0.01 µM
14,COC(=O)N1CCc2ccc3c(nc(C4CCCCC4)n3CC[C@H]3CCC[C@@H](C(=O)O)C3)c2C1 [Compound 177],0.01 to 0.1 µM
15,COC(=O)N1CCc2ccc3c(nc(C4CCCCC4)n3C[C@@H](CC(=O)O)c3cc(F)cc(OC)c3)c2C1 [Compound 35],0.001 to 0.01 µM
16,COC(=O)N1CCc2ccc3c(nc([C@H]4CCC[C@H](C(=O)O)C4)n3[C@H](C)Cc3ccccc3)c2C1 [Compound 344],0.1 to 1 µM
17,COC(=O)N1CCc2ccc3c(nc(C4CCCCC4)n3C[C@@H](O)c3cccc(C(=O)O)c3)c2C1 [Compound 199],0.01 to 0.1 µM
18,COC(=O)N1CCc2ccc3c(nc([C@H]4CC[C@H](C(=O)O)CC4)n3[C@H](C)C[C@]3(C)CC[C@@H](OC)CC3)c2C1 [Compound 267],0.01 to 0.1 µM
19,COC(=O)N1Cc2c(ccc3c2nc(C2CCCCC2)n3Cc2ccccc2)CC1C (stereo not shown) [Compound 328],0.1 to 1 µM
20,COC(=O)N1CCc2ccc3c(nc([C@@H]4CCC[C@@H](C(=O)O)C4)n3C[C@H]3CC[C@H](OC)CC3)c2C1 [Compound 262],0.01 to 0.1 µM
21,"COC(=O)N1CCc2ccc3c(nc([C@@H]4CCC[C@H](C(=O)O)C4)n3[C@@H](C)Cc3ccccc3)c2C1 (single isomer, unassigned) [Compound 203]",0.01 to 0.1 µM
22,COC(=O)N1CCc2ccc3c(nc(-c4cccc(CC(=O)O)c4)n3[C@@H](C)Cc3cc(F)cc(F)c3)c2C1 [Compound 116],0.001 to 0.01 µM
23,COC(=O)N1CCc2ccc3c(nc([C@H]4CC[C@H](C(=O)O)CC4)n3[C@@H](C)Cc3ccc(C)cc3)c2C1 [Compound 93],0.001 to 0.01 µM
24,COC(=O)N1CCc2ccc3c(nc(N4CCN(S(C)(=O)=O)CC4)n3[C@@H](C)Cc3ccccc3)c2C1 [Compound 80],0.001 to 0.01 µM
25,COC(=O)N1CCc2ccc3c(nc([C@H]4CC[C@@H](C(=O)O)CC4)n3[C@@H](C)Cn3cc(Cl)cn3)c2C1 [Compound 264],0.01 to 0.1 µM
26,COC(=O)N1CCc2ccc3c(nc([C@H]4CC[C@@H](C(=O)O)CC4)n3CCc3ccccc3)c2C1 [Compound 336],0.1 to 1 µM

row,Compound,IC50
1,COC(=O)N1CCc2ccc3c(nc([C@H]4CC[C@](C)(C(=O)O)CC4)n3[C@H](CO)Cc3ccccc3)c2C1 [Compound 117],0.001 to 0.01 µM
2,COC(=O)N1CCc2ccc3c(nc(C4CCCCC4)n3CC[C@H]3CCC[C@H](C(=O)O)C3)c2C1 [Compound 172],0.001 to 0.01 µM
3,COC(=O)N1CCc2ccc3c(nc(C4CCN(C(C)=O)CC4)n3C[C@@H](C(=O)O)c3ccccc3)c2C1 [Compound 62],0.001 to 0.01 µM
4,COC(=O)N1CCc2ccc3c(nc([C@H]4CC[C@H](C(=O)O)CC4)n3CC(F)(F)c3ccccc3)c2C1 [compound 145],0.001 to 0.01 µM
5,COC(=O)N1CCc2ccc3c(nc([C@H]4CC[C@H](S(N)(=O)=O)CC4)n3[C@@H](C)Cc3ccccc3)c2C1 [Compound 97],0.001 to 0.01 µM
6,COC(=O)N1CCc2ccc3c(nc(-c4cccc(CC(=O)O)c4)n3[C@H](C)Cc3cc(F)cc(F)c3)c2C1 [Compound 322],0.1 to 1 µM
7,"(1S,3S)-3-[3-[(2S)-2-(3,4-difluorophenyl)propyl]-8-(methoxycarbonyl)-3H,6H,7H,8H,9H-imidazo[4,5-h]isoquinolin-2-yl]cyclohexane-1-carboxylic acid [Compound 29]",0.001 to 0.01 µM
8,COC(=O)N1CCc2ccc3c(nc(C4CCCCC4)n3C[C@H]3CC[C@@H](C(=O)O)CC3)c2C1 [Compound 221],0.01 to 0.1 µM
9,COC(=O)N1CCc2ccc3c(nc([C@H]4CC[C@H](C(=O)O)CC4)n3[C@@H](C)C[C@@H]3CCCOC3)c2C1 [Compound 183],0.01 to 0.1 µM
10,COC(=O)N1CCc2ccc3c(nc(N4CCC[C@@H](C(=O)O)C4)n3C[C@@H](C)c3ccccc3)c2C1 [Compound 165],0.001 to 0.01 µM
11,COC(=O)N1CCc2ccc3c(nc([C@H]4CCC[C@H](C(=O)O)C4)n3[C@@H](C)Cc3ccccc3)c2C1 [Compound 261],0.01 to 0.1 µM
12,COC(=O)N1CCc2ccc3c(nc(-c4cccc(C(C)(C)C(=O)O)c4)n3[C@H](C)Cn3cc(Cl)cn3)c2C1 [Compound 320],0.1 to 1 µM
13,COC(=O)N1CCc2ccc3c(nc(C4CCCCC4)n3C[C@H](O)c3cccc(C(=O)O)c3)c2C1 [Compound 173],0.01 to 0.1 µM
14,COC(=O)N1CCc2ccc3c(nc([C@H]4CC[C@H](C(=O)O)CC4)n3[C@H](C)Cc3ccc4c(c3)CCO4)c2C1 [Compound 332],0.1 to 1 µM
15,COC(=O)N1CCc2ccc3c(nc([C@H]4CC[C@H](C(=O)O)CC4)n3[C@H](C)Cc3c(F)cccc3F)c2C1 [Compound 95],0.001 to 0.01 µM
16,"COC(=O)N1CCc2ccc3c(nc(C4CCCCC4)n3C[C@H](C(=O)O)c3cc(F)c(Cl)cc3OC)c2C1 (single isomer, unassigned) [Compound 229]",0.01 to 0.1 µM
17,COC(=O)N1CCc2ccc3c(nc([C@H]4CC[C@@H](C(=O)O)C4)n3[C@@H](C)Cc3ccccc3C)c2C1 [Compound 218],0.01 to 0.1 µM
18,COC(=O)N1CCc2ccc3c(nc([C@H]4CC[C@H](C(=O)O)CC4)n3[C@@H](C)[C@H](O)c3ccccc3)c2C1 [Compound 268],0.01 to 0.1 µM
19,COC(=O)N1CCc2ccc3c(nc([C@H]4CC[C@H](C(=O)O)CC4)n3Cc3ccc(OC(F)F)cc3)c2C1 [Compound 171],0.001 to 0.01 µM
20,COC(=O)N1CCc2ccc3c(nc([C@H]4CC[C@H](S(=O)(=O)NC(C)=O)CC4)n3[C@H](C)Cc3ccccc3)c2C1 [Compound 316],0.1 to 1 µM
21,COC(=O)N1CCc2ccc3c(nc([C@H]4CC[C@H](C(=O)O)CC4)n3[C@@H](C)C[C@H]3CCCOC3)c2C1 [Compound 296],0.1 to 1 µM
22,COC(=O)N1CCc2ccc3c(nc([C@H]4CC[C@H](S(=O)(=O)NC(C)=O)CC4)n3[C@@H](C)Cc3ccccc3)c2C1 [Compound 96],0.001 to 0.01 µM
23,COC(=O)N1CCc2ccc3c(nc([C@H]4CC[C@H](C(=O)O)CC4)n3[C@@H](C)Cc3ccc4c(c3)CCO4)c2C1 [Compound 65],0.001 to 0.01 µM
24,COC(=O)N1CCc2ccc3c(nc([C@H]4CC[C@H](C(=O)O)CC4)n3[C@H](C)C(F)(F)c3ccccc3)c2C1 [Compound 125],0.001 to 0.01 µM
25,COC[C@@H](Cc1ccccc1)n1c2ccc3c(c2nc1[C@H]1CC[C@H](C(=O)O)CC1)CN(C(=O)OC)CC3 [Compound 124],0.001 to 0.01 µM
26,COC(=O)N1CCc2ccc3c(nc(N4CCN(C(C)=O)CC4)n3[C@@H](C)Cc3cccnc3)c2C1 [Compound 234],0.01 to 0.1 µM
